“Also recorded” adds a separate entry of the source. Ends that are not written are not given here.
Assays:
recombinant human GPBP [1] = target: T1, recombinant human GPBP (Homo sapiens, UniProt Q9Y5P4); test: In vitro phosphorylation: GPBP kinase activity / autophosphorylation; conditions: for GPBP kinase activity in vitro (autophosphorylation): modulators at 200 μM, 10 min autophosphorylation reaction
T1 sequence (Q9Y5P4 1-624): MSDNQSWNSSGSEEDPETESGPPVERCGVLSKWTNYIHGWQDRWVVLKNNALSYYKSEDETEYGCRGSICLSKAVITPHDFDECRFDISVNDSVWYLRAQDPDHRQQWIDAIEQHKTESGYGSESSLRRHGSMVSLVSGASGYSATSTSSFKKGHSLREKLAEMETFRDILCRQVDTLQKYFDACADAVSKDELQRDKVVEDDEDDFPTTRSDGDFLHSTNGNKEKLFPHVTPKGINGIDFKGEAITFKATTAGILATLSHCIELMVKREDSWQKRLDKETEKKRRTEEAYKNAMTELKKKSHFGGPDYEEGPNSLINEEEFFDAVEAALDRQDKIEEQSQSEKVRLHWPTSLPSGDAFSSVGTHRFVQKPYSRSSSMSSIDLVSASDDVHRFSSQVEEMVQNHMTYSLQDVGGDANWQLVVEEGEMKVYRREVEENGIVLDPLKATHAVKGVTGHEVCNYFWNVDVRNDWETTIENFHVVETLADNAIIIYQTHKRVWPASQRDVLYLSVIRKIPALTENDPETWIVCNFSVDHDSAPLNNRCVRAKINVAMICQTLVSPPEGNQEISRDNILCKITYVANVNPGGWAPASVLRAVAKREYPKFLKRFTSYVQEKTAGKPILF

[2] = test system: α3(IV)NC1-expressing cells (HEK293); test: α3(IV)NC1 conformer production in cultured cells (Western blot of culture media); type: cell-based, human; conditions: synthetic peptides 100-200 μM, organic compounds 5-50 μM, 24-48 h
CaM kinase II [3] = conditions: known; cited from earlier work
recombinant human GPBP [4] = target: T1, recombinant human GPBP; test: Far Western blot with recombinant GPBP; type: binding; set-up: FLAG; made in house; host or cells: yeast; conditions: 1 μg peptide
CaM kinase II [5] = test: CaM kinase II inhibition; type: biochemical
NZW mice = test: Degenerative glomerulopathy in NZW mice (histochemical studies of kidney); type: in vivo
[6] = NZW treated with DAB-Am-4 and peptide

| Molecule | GPBP kinase activity in vitro (autophosphorylation) (recombinant human GPBP [1]) | α3(IV)NC1 conformer production in cultured cells [2] | relative inhibitory potency for CaM kinase II (CaM kinase II [3]) | binding of GPBP to the peptide (recombinant human GPBP [4]) | inhibition of CaM kinase II (CaM kinase II [5]) | amyloid-like matter formation (thioflavin T or Congo red staining) (NZW mice; [6]) | fibrotic reaction in glomeruli (NZW mice; [6]) | fuchsinophilic material at the subendothelial space (NZW mice; [6]) | material deposited in the glomerulus of suspected collagenous nature (NZW mice; NZW treated with DAB-Am-4 and peptide 20 μg/g i.p.) | synergistic inhibitory effect on GPBP kinase activity (recombinant human GPBP [1]; combined with Ca^2+CaM) | synergistic inhibitory effect on GPBP kinase activity (recombinant human GPBP [1]; combined with KN62) |
| --- | --- | --- | --- | --- | --- | --- | --- | --- | --- | --- | --- |
| COc1ccc(S(=O)(=O)N(CCO)c2ccccc2CN(C)CC=Cc2ccc(Cl)cc2)cc1 [KN93, 2-[N-(2-hydroxyethyl)-N-(4-methoxybenzenesulfonyl)]amino-N-(4-chlorocinnamyl)-N-methylbenzylamine] | efficiently impaired | reduced cell conformer production | more potent inhibitor than KN62 | – | – | – | – | – | – | – | – |
| Ac-KGKPGDTGPPAAGAVMRGFVFT-NH2 [GPpep1bov] | – | – | – | did not display binding capacity | – | – | – | – | – | – | – |
| LATLSHCIELMVKR (not fully specified (N-terminus, C-terminus)) [Q2] | efficiently inhibited | reduction in conformer production; also recorded: efficiently inhibits; also recorded: more effective inhibiting cell conformer production than Q4 | – | – | efficiently inhibited | efficiently inhibited amyloid-like matter formation | glomeruli virtually devoid of fibrotic reaction | unable to reduce | sharply reduced | no cooperative inhibitory effect | no cooperative inhibitory effect |

Source: patent publication US7326768B2, “Goodpasture antigen-binding protein isoforms and protein misfolded-mediated disorders” (priority 2003, dated 2008)
